Here are results for 15 compounds from patent publication US6489269B1, “Plant-activating agent” (Kao Corporation, priority 1998, dated 2002).

This test relates to Chlorella cells. Kind of test: Test of reproductive ability using chlorella cells. In kind it is cell-based. The note with it: number of chlorella cells after 10 days, relative value, no-treated LS medium = 100; start 1.00x10^5 cells per ml. As for the experimental part:
<Test of Reproductive Ability Using Chlorella Cells> Chlorella cells, which are green cells of […], were cultured with vibration in an inorganic-salt medium. Raw materials shown in Table 4 were added thereto, and then reproductive ability of chlorella cells (ability for increasing the number of the cells) was evaluated by comparison with the result obtained from a medium which was no-treated (i.e., only original nutrients of the inorganic salt medium). For the respective compositions, the test was repeated 3 times. The concentration of the cells was set to 1.00×10^5 cells (per ml) at the start of the test. […] As the inorganic salt medium, a Linsmaier-Skoog (LS) medium was used.
On to `CCCO` [Comparative product 4-1, Propanol, reference compound], for which the “proliferating ability of cells” value is 96.

On to `CCCCCCO` [Comparative product 4-2, Hexanol, reference compound], for which the “proliferating ability of cells” value is 93.

For the compound `CCCCCCCCCCO` [Comparative product 4-4, Decyl alcohol, reference compound], the “proliferating ability of cells” value was 91.

`CCCCCCCCO` [Comparative product 4-7, Octanol, reference compound]: the “proliferating ability of cells” value is given as 95.

For `CCCCCCCCCCCCO` [Invention product 4-1, Lauryl alcohol], the “proliferating ability of cells” value is reported as 115.

With `CCCCCCCCCCCCCCO` [Invention product 4-2, Myristyl alcohol], the “proliferating ability of cells” value was found to be 128.

On to `CCCCCCCCCCCCCCCCO` [Invention product 4-4, Cetyl alcohol], for which the “proliferating ability of cells” value was 148.

For `CCCCCCCCCCCCCCCCCCO` [Invention product 4-6, Stearyl alcohol], the “proliferating ability of cells” value is reported as 168.

In the case of `CCCCCCCC/C=C\CCCCCCCCO` [Invention product 4-7, Oleyl alcohol], the “proliferating ability of cells” value is 154.

Take `CCCCCCCCCCCCCCCCCCCCO` [Invention product 4-8, Eicosanol]: the “proliferating ability of cells” value is 152.

Turning to `CCCCCCCCCCCCCCCCCCCCCCO` [Invention product 4-9, Docosanol], the “proliferating ability of cells” value was found to be 130.

Regarding `CCCCCCCCCCCCCCCCCCCCCCCCO` [Invention product 4-10, Tetracosanol], the “proliferating ability of cells” value is 122.

Turning to `CCCCCCCCCCCCCCCCO` [Invention product 4-15, Cetyl alcohol], the “proliferating ability of cells” value is recorded as 142.

In the case of `CCCCCCCCCCCCCCCCCCO` [Invention product 4-16, Stearyl alcohol], the “proliferating ability of cells” value was found to be 156.

Consider `CCCCCCCCCCCCCCCCCCCCO` [Invention product 4-17, Eicosanol], for which the “proliferating ability of cells” value is on record as 146.
